# Experimental data published in the supplement of paper PMC11061612.
# Tests used:
# Test in all cases: Bliss excess, mean over the matrix (fraction); higher = more synergy
# [1] = tested on: KMRC-1 (Kidney Carcinoma)
# Outline: (§1)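 Cell lines grown in DMEM/F12 or RPMI with 10% FBS were plated in 1536-well plates and held 24 hours at 37°C, 5% CO2 before 72 hours of exposure to two-drug dose matrices, with DMSO typically at 0.2%. CellTiter-Glo 2.0 luminescence gave viability, which was converted to inhibition. Vehicle wells were set to 0 and blank wells to 1. Combination Emax is the second-highest inhibition in the matrix, and Bliss excess is the observed combination effect minus the expected EA + EB − EA·EB, where EA and EB are the single-agent effects.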
# [2] = tested on: NCI-H1355 (Lung Adenocarcinoma)
# Outline: as §1
# [3] = tested on: EFO-21 (Ovarian Carcinoma)
# Outline: as §1
# [4] = tested on: HCC1500 (Breast Carcinoma)
# Outline: as §1
# [5] = tested on: COLO-668 (Small Cell Lung Carcinoma)
# Outline: as §1
# [6] = tested on: ALL-SIL (T-Lymphoblastic Leukemia)
# Outline: as §1
# [7] = tested on: SW982 (Other Solid Carcinomas)
# Outline: as §1
# [8] = tested on: NCI-H522 (Lung Adenocarcinoma)
# Outline: as §1
# [9] = tested on: MOG-G-UVW (Low Grade Glioma)
# Outline: as §1
# [10] = tested on: Mo-T (Other Blood Carcinomas)
# Outline: as §1
# [11] = tested on: KGN (Other Solid Carcinomas)
# Outline: as §1
# [12] = tested on: OACM5-1 (Esophageal Adenocarcinoma)
# Outline: as §1
# [13] = tested on: CADO-ES1 (Ewing's Sarcoma)
# Outline: as §1
# [14] = tested on: HCC2998 (Colorectal Carcinoma)
# Outline: as §1
# [15] = tested on: LC-1-sq (Squamous Cell Lung Carcinoma)
# Outline: as §1
# [16] = tested on: NCI-H1092 (Small Cell Lung Carcinoma)
# Outline: as §1
# [17] = tested on: SKN (Other Solid Carcinomas)
# Outline: as §1
# [18] = tested on: ME-180 (Cervical Carcinoma)
# Outline: as §1
# [19] = tested on: DU-145 (Prostate Carcinoma)
# Outline: as §1
SMILES,Bliss excess [1],Bliss excess [2],Bliss excess [3],Bliss excess [4],Bliss excess [5],Bliss excess [6],Bliss excess [7],Bliss excess [8],Bliss excess [9],Bliss excess [10],Bliss excess [11],Bliss excess [12],Bliss excess [13],Bliss excess [14],Bliss excess [15],Bliss excess [16],Bliss excess [17],Bliss excess [18],Bliss excess [19]
"CCc1c2c(nc3ccc(O)cc13)-c1cc3c(c(=O)n1C2)COC(=O)[C@]3(O)CC [SN-38] + CN(C)CCCOc1ccc(-c2ccc3ncc4c(c3c2)n(C2CCOCC2)c(=O)n4C)cn1 [AZD0156] (first compound max 0.3 µM, 7x7, partner max 1 µM)",0.0671,-0.0107,-0.0125,0.0076,-0.0198,-0.0475,-0.0208,0.0294,0.0727,-0.0527,-0.0065,-0.0642,0.0718,0.253,0.0912,-0.0472,-0.0094,-0.0259,-0.109
"CCc1c2c(nc3ccc(O)cc13)-c1cc3c(c(=O)n1C2)COC(=O)[C@]3(O)CC [SN-38] + O=C(c1cc(Cc2n[nH]c(=O)c3ccccc23)ccc1F)N1CCN(C(=O)C2CC2)CC1 [Olaparib] (first compound max 0.3 µM, 7x7, partner max 10 µM)",0.0508,0.0271,0.0601,0.051,0.0738,0.0795,0.0384,0.0909,0.036,0.0236,0.0691,0.0474,0.0253,–,0.0716,-0.0076,0.0246,0.0915,0.0282
"CC(=O)Nc1cccc(-n2c(=O)n(C3CC3)c(=O)c3c(Nc4ccc(I)cc4F)n(C)c(=O)c(C)c32)c1 [Trametinib] + Cc1nc(-c2cn3c(n2)-c2ccc(-c4cnn(C(C)(C)C(N)=O)c4)cc2OCC3)n(C(C)C)n1 [Taselisib] (first compound max 1 µM, 7x7, partner max 10 µM)",0.0072,0.0292,0.048,0.0452,0.289,0.267,0.0666,0.0504,-0.0446,0.142,0.0972,0.03,-0.0253,0.0408,0.24,-0.0174,-0.0353,0.0713,0.0241
"CC1(C)CCC(CN2CCN(c3ccc(C(=O)NS(=O)(=O)c4ccc(NCC5CCOCC5)c([N+](=O)[O-])c4)c(Oc4cnc5[nH]ccc5c4)c3)CC2)=C(c2ccc(Cl)cc2)C1 [Venetoclax] + C1CN(CCC1(C(=O)N[C@@H](CCO)C2=CC=C(C=C2)Cl)N)C3=NC=NC4=C3C=CN4 [Capivasertib] (first compound max 1 µM, 7x7, partner max 3 µM)",-0.028,-0.0379,-0.131,0.0321,0.0066,-0.0261,-0.0523,-0.0292,-0.0404,-0.013,-0.0592,0.0191,-0.0206,-0.0133,-0.0136,0.0236,-0.0299,-0.0015,-0.0493
"CC1(C)CCC(CN2CCN(c3ccc(C(=O)NS(=O)(=O)c4ccc(NCC5CCOCC5)c([N+](=O)[O-])c4)c(Oc4cnc5[nH]ccc5c4)c3)CC2)=C(c2ccc(Cl)cc2)C1 [Venetoclax] + C=CCn1c(=O)c2cnc(Nc3ccc(N4CCN(C)CC4)cc3)nc2n1-c1cccc(C(C)(C)O)n1 [AZD1775] (first compound max 1 µM, partner max 1 µM)",-0.0126,0.0069,0.0233,0.114,0.136,0.0792,0.018,0.0162,0.0612,-0.0213,0.0003,-0.056,-0.0626,-0.0423,-0.0039,0.0018,0.0355,-0.0001,-0.0098
"CC1(C)CCC(CN2CCN(c3ccc(C(=O)NS(=O)(=O)c4ccc(NCC5CCOCC5)c([N+](=O)[O-])c4)c(Oc4cnc5[nH]ccc5c4)c3)CC2)=C(c2ccc(Cl)cc2)C1 [Venetoclax] + CCN(CCO)CCCOc1ccc2c(Nc3cc(CC(=O)Nc4cccc(F)c4)[nH]n3)ncnc2c1 [AZD2811] (first compound max 1 µM, 7x7, partner max 1 µM)",-0.0456,-0.0219,-0.0263,0.0905,0.0051,-0.0059,-0.0257,0.0172,-0.0186,-0.125,-0.038,-0.0406,0.0054,-0.0403,-0.0099,0.075,0.0005,0.0083,-0.0375
"CC1(C)CCC(CN2CCN(c3ccc(C(=O)NS(=O)(=O)c4ccc(NCC5CCOCC5)c([N+](=O)[O-])c4)c(Oc4cnc5[nH]ccc5c4)c3)CC2)=C(c2ccc(Cl)cc2)C1 [Venetoclax] + CN(C)CCCOc1ccc(-c2ccc3ncc4c(c3c2)n(C2CCOCC2)c(=O)n4C)cn1 [AZD0156] (first compound max 1 µM, 7x7, partner max 1 µM)",-0.0466,-0.0429,-0.0375,0.0766,-0.0022,-0.0012,-0.086,-0.0134,0.0408,-0.0469,-0.0172,-0.0017,-0.0204,-0.0292,-0.0007,-0.0023,-0.0205,0.0092,-0.0261
"CC1(C)CCC(CN2CCN(c3ccc(C(=O)NS(=O)(=O)c4ccc(NCC5CCOCC5)c([N+](=O)[O-])c4)c(Oc4cnc5[nH]ccc5c4)c3)CC2)=C(c2ccc(Cl)cc2)C1 [Venetoclax] + COc1cc(Nc2ncc3c(n2)-c2ccc(Cl)cc2C(c2c(F)cccc2OC)=NC3)ccc1C(=O)O [Alisertib] (first compound max 1 µM, 7x7, partner max 10 µM)",-0.012,-0.0205,-0.0576,0.141,0.066,0.0202,-0.0524,0.0305,-0.0265,0.0928,-0.0167,0.0758,0.032,0.0056,-0.0116,0.294,-0.0051,-0.0226,-0.0117
